From ChEMBL document CHEMBL1201862, “PubChem BioAssay data set” (2004) come the findings set out here.

Structures are written as SMILES.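 Dose response: 5 concentrations. Exposure: 48 h. Format: 96-well plates. Endpoint: linear interpolation; highest concentration if not reached. GI50 marks 50% less growth.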 The source made the active and inactive calls. No stated cut-off is given here; in the data, active = GI50 up to about 1.1 µM and inactive = higher. Some results are limits rather than exact numbers.

Common to all, as to assay: NCI-60 cell line screen, 48 h
Assay [1] has as its system 786-0.
The test system of assay [2] is A498.
Assay [3] deals with ACHN.
The subject of assay [4] is CAKI-1.
Assay [5] concerns HCT-116.
In assay [6] the test system is K562.
In assay [7] the test system is M14.
In assay [8] the test system is NCI-H226.
Assay [9] concerns OVCAR-5.
The subject of assay [10] is SF-539.
Assay [11] deals with SK-MEL-28.
The subject of assay [12] is SN12C.
For assay [13], the system named is UACC-257.
Assay [14] concerns UO-31.
The test system of assay [15] is EKVX.
Assay [16] deals with OVCAR-3.

As to `Cc1nc2ccccc2c(=O)n1NC(=S)Nc1ccccc1`, the GI50 in [1], in [2], in [3], in assay [4], in assay [5] and in assay [6] was > 100 µM (inactive) each time. Further, the GI50 in assay [7] was > 100 µM (inactive); in [8], 37.7 µM (inactive); in assay [9], > 100 µM (inactive); in [10], > 100 µM (inactive); in [11] it was > 100 µM (inactive); in assay [12], > 100 µM (inactive). The GI50 in assay [13] was > 100 µM (inactive); in assay [14], 88.9 µM (inactive).

For `O=c1oc2c3ccc4ccccc4c3n(CCN3CCOCC3)c2c2ccccc12`, the GI50 is 6.44 µM (inactive) in assay [1]; 5.6 µM (inactive) in [3]; 6.78 µM (inactive) in [4]; 14.8 µM (inactive) in assay [15]; > 100 µM (inactive) in assay [5]; 3.89 µM (inactive) in assay [6]. Moreover, the GI50 in assay [7] was 58.5 µM (inactive); in [16], > 100 µM (inactive); in assay [10], 3.76 µM (inactive); in [11] it was > 100 µM (inactive); in assay [13], > 100 µM (inactive); in assay [14], 0.622 µM (active).

Take `CCOc1ncnc2ccc(Cl)c(I)c12`: the GI50 was 87.9 µM (inactive) in [1]; 31 µM (inactive) in [2]; 33.6 µM (inactive) in assay [3]; 22.6 µM (inactive) in assay [4]; 11.2 µM (inactive) in assay [15]; 82.2 µM (inactive) in assay [5]. The GI50 in assay [6] was 88.7 µM (inactive); in assay [7] it was 75.2 µM (inactive); in assay [16], > 100 µM (inactive); in assay [9], > 100 µM (inactive); in assay [11], > 100 µM (inactive); in assay [12], 67.5 µM (inactive). Besides, the GI50 in assay [13] is > 100 µM (inactive); in assay [14], 27.7 µM (inactive).

As to `COc1ccc2nc(NC(=O)C(=O)CC(=O)c3ccc(Cl)cc3)sc2c1`, the GI50 in [1] is > 100 µM (inactive); in assay [2], > 100 µM (inactive); in assay [3] it was > 100 µM (inactive); in [4], 58.5 µM (inactive); in assay [15] it was 48.1 µM (inactive); in assay [5], > 100 µM (inactive). Further, the GI50 in assay [7] was > 100 µM (inactive); in assay [8], 96.2 µM (inactive); in assay [16] it was > 100 µM (inactive); in [10] it was 17.3 µM (inactive); in [11], > 100 µM (inactive); in assay [12], > 100 µM (inactive). Moreover, the GI50 was > 100 µM (inactive) in assay [13] and 69 µM (inactive) in assay [14].

As to `CCCCCCC(C)OC(=O)/C=C(\CC(=O)OC(C)CCCCCC)C(=O)OC(C)CCCCCC` (stereo unspecified), the GI50 in assay [1], in assay [2], in assay [3], in [4], in assay [15] and in assay [5] was > 100 µM (inactive) throughout. Moreover, the GI50 in [7], in [8], in assay [16], in [9], in assay [10] and in assay [11] was > 100 µM (inactive) each time. Also, the GI50 in [12], in [13] and in assay [14] was > 100 µM (inactive) each time.

For `C=C(COC(C)=O)CC(/C=C(\C)CCC=C(C)C)OC(C)=O` (stereo unspecified), the GI50 in assay [1], in assay [2], in assay [3], in assay [15], in [5] and in assay [6] was > 100 µM (inactive) each time. For the same compound, the GI50 in assay [7], in [8], in [16], in assay [9], in assay [10] and in assay [11] was > 100 µM (inactive) throughout. In addition, the GI50 in assay [12] and in assay [14] was > 100 µM (inactive) in each case.

Consider `COC1OC(COCc2ccc(Cl)cc2)C(OCc2ccc(Cl)cc2)C1O` (stereo unspecified), for which the GI50 in assay [1] was 15 µM (inactive); in assay [3], 18.6 µM (inactive); in assay [4], 18 µM (inactive); in [15] it was 19.4 µM (inactive); in assay [6], 16.2 µM (inactive); in assay [7], 16.1 µM (inactive). Besides, the GI50 in assay [16] is 19.7 µM (inactive); in [9] it was 16.1 µM (inactive); in [10], 16.3 µM (inactive); in assay [11] it was 16.9 µM (inactive); in assay [12], 14.9 µM (inactive); in [13], 16.3 µM (inactive). Besides, the GI50 in [14] is 15.1 µM (inactive).

`N#CC(C(=O)/C(=N/N)C(C#N)c1ccc(Cl)cc1)c1ccc(Cl)cc1` (stereo unspecified): the GI50 in assay [1], in assay [2], in assay [3], in assay [15], in assay [5] and in [6] was > 100 µM (inactive) in each case. In addition, the GI50 in assay [7] was > 100 µM (inactive); in [8] it was > 100 µM (inactive); in assay [16], > 100 µM (inactive); in [9] it was > 100 µM (inactive); in assay [10], > 100 µM (inactive); in assay [11], > 10 µM (inactive). Moreover, the GI50 in assay [12], in assay [13] and in assay [14] was > 100 µM (inactive) throughout.

On to `O=C1Nc2nc3ccccc3n2N=C2CCCC12` (stereo unspecified), for which the GI50 in assay [1], in [2], in assay [3], in assay [4], in assay [15] and in assay [5] was > 100 µM (inactive) in each case. Moreover, the GI50 in assay [6], in [7], in [16], in assay [9], in assay [10] and in [11] was > 100 µM (inactive) in each case. In addition, the GI50 in [12], in assay [13] and in assay [14] was > 100 µM (inactive) in each case.

With `O=C1c2ccccc2N2Oc3ccccc3C12c1ccccc1` (stereo unspecified), the GI50 in assay [1], in assay [2], in [3], in [15], in [5] and in assay [6] was > 100 µM (inactive) throughout. Besides, the GI50 in assay [7] is > 100 µM (inactive); in assay [8], 59.4 µM (inactive); in assay [10], > 100 µM (inactive); in [11], > 100 µM (inactive); in assay [12] it was > 100 µM (inactive); in [13], > 100 µM (inactive). Moreover, the GI50 in assay [14] was > 100 µM (inactive).

`COC12OCCN(CCO)C1=CC(=O)C1(C)N=NC(C)C12` (stereo unspecified): the GI50 in assay [1], in assay [2], in [3], in assay [4], in assay [15] and in [5] was > 100 µM (inactive) each time. In addition, the GI50 in assay [6], in [7], in assay [8], in assay [16], in assay [10] and in [11] was > 100 µM (inactive) each time. In addition, the GI50 in assay [12], in assay [13] and in [14] was > 100 µM (inactive) throughout.

Turning to `COC(=O)C(C(=O)C(=O)NC1=C(Cl)C(=O)c2ccccc2C1=O)c1csc(-n2nc(-c3ccccc3)cc2-c2ccccc2)n1` (stereo unspecified), the GI50 in assay [1] was > 100 µM (inactive); in assay [2] it was > 100 µM (inactive); in assay [3] it was > 100 µM (inactive); in assay [4] it was > 100 µM (inactive); in [15], 9.66 µM (inactive); in assay [5], > 100 µM (inactive). Moreover, the GI50 in assay [6] is 20.9 µM (inactive); in [7], > 100 µM (inactive); in assay [8] it was > 100 µM (inactive); in assay [16] it was > 100 µM (inactive); in assay [9], > 100 µM (inactive); in [12], > 100 µM (inactive). The GI50 was > 100 µM (inactive) in assay [13] and 6.08 µM (inactive) in assay [14].

Regarding `CCCCCCCCCCCCC(Br)C(=O)NCC(N)=O` (stereo unspecified), the GI50 is 6.85 µM (inactive) in assay [1]; 13.6 µM (inactive) in assay [2]; 15 µM (inactive) in [3]; 20.6 µM (inactive) in assay [15]; 1.83 µM (inactive) in assay [5]; 11.1 µM (inactive) in [7]. Also, the GI50 in assay [8] is 1.67 µM (inactive); in [16] it was 15 µM (inactive); in assay [9] it was 29.4 µM (inactive); in assay [10], 14.4 µM (inactive); in assay [11] it was 15.2 µM (inactive); in [12] it was 1.73 µM (inactive). Besides, the GI50 in assay [13] is 11.4 µM (inactive); in assay [14], 2.09 µM (inactive).

As to `COC(=O)C(=O)OC1(C(C)=O)CC2(c3ccccc3)OC1(c1ccccc1)c1ccccc12` (stereo unspecified), the GI50 in [1] was 13.5 µM (inactive); in [2], 18.6 µM (inactive); in assay [4] it was 17.9 µM (inactive); in assay [15], 20.7 µM (inactive); in assay [5], 16.2 µM (inactive); in assay [6] it was 27.7 µM (inactive). The GI50 in [7] is 17.9 µM (inactive); in [8], 17.3 µM (inactive); in assay [16] it was 13.9 µM (inactive); in assay [9] it was 26.1 µM (inactive); in assay [10] it was 13 µM (inactive); in assay [12], 15 µM (inactive). For the same compound, the GI50 in assay [13] is 16.2 µM (inactive); in assay [14], 14.2 µM (inactive).
